Measurements reported in patent US12364429B2, “Compositions and methods for a universal clinical test for olfactory dysfunction” (The Rockefeller University, priority 2017, dated 2025).

Tested on: trigeminal system
Assay: Lateralization task (odorant applied into only one nostril)
Format: in vivo, human
Conditions: pure concentration; number of correct tasks out of 20; eucalyptol 4 trials, vanillin 6 trials
Description: SMELL-S and SMELL-R were created with four different mixtures of 30 molecules drawn from a panel of 109 monomolecular, intensity-matched chemicals. These odorants were selected from stimuli utilized in previous psychophysical studies (21, 38). We used only molecules that minimally activated the trigeminal system, because such stimuli can be detected by anosmic subjects (39, 40). A characteristic of trigeminal activation by a molecule is a fresh, cold, burning, eucalyptus, pungent, or tickling sensation. We used a lateralization task in which an odorant is applied into only one nostril to assign a lateralization score to each molecule. It is possible to localize the stimulated nostril if it activates the trigeminal system. In contrast, it is much harder to localize an olfactory stimulus (41). Lateralization tasks were self-administered by one investigator. Two disposable squeeze bottles were placed in a device facilitating simultaneous squeezing and stimuli delivery in each nostril. Only one bottle was filled with an odor stimulus. The tip of each bottle was fitted with a foam piece that conformed to the investigator's nostril, and placed at the entrance of each nostril. The investigator squeezed both bottles simultaneously and attempted to localize which nostril had received the stimulus. After each task, the device was spun on a rotating platform to randomize the odor-stimulus side. […]

COc1cc(C=O)ccc1O [vanillin]
lateralization score (median): 6.5

CC12CCC(CC1)C(C)(C)O2 [eucalyptol]
lateralization score (median): 20
